According to patent publication US20190060463A1, “BRIDGED POLYETHYLENE GLYCOL-ALIPHATIC POLYESTER BLOCK COPOLYMER, PREPARATION METHOD FOR SAME, INTERMEDIATE OF SAME, AND USES THEREOF” (University Of Science And Technology Of China, priority 2015, published 2019):

Test system: MDA-MB-231 in situ breast cancer mouse tumor model
Assay: Inhibition of breast cancer growth by nanoparticles carrying docetaxel
Format: in vivo, nude mouse
Details: 70 μg DTXL (3.5 mg/kg), 3 administrations, period 7 days
Procedure: In this Example, a MDA-MB-231 in situ breast cancer mouse tumor model was used. The specific process of establishing the model was as follows. MDA-MB-231 cells were cultured in a DMEM complete medium. The cells were cultured with a serum-free DMEM 6 hours before the model was established, and digested with trypsin. The cells were collected by centrifugation at 1000 rpm, and resuspended with PBS to allow the density of the cells to be up to 2×10^7cells/mL. 100 μL of the cell suspension was injected to the second right breast of a nude mouse. In this Example, mPEG113-b-PDLLA72, mPEG113-Dlinkm-PDLLA70, and mPEG113-Dlink-PDLLA75 were used to produce drug loaded nanoparticles.
Nude mice, which were injected with breast cancer cells in situ, were bred in a SPF-level animal room for about 7 days, and visible tumors may be formed. The volume of the tumor was calculated according to the equation: V=0.5*a*b*b, wherein a refers to a longer diameter of the tumor and b refers to a shorter diameter of the tumor. When the tumor volume of the nude mouse reaches about 60 mm^3, treatment was performed. 20 g nude mice inoculated with MDA-MB-231 tumor were divided into 5 groups according to the following manners of treatment, and each group has 5 nude mice. […] A treatment period was 7 days and 3 administrations were performed. The tumor volume was measured every 3 days. […]

SMILES: CC(=O)O[C@@]12CO[C@@H]1C[C@H](O)[C@@]1(C)C(=O)[C@H](O)C3=C(C)[C@@H](OC(=O)[C@H](O)[C@@H](NC(=O)OC(C)(C)C)c4ccccc4)C[C@@](O)([C@@H](OC(=O)c4ccccc4)[C@H]21)C3(C)C [DTXL, docetaxel]
- inhibitory effect on tumor growth: no inhibitory effect
